Experimental data: US20230310372A1 (Amarin Pharmaceuticals Ireland Limited, priority 2013, published 2023)
Several values for one entry are separate records, joined by “and”; a condition that tells them apart may be missing. Equal entries are not always repeated.

Assay: Phase 1, open-label, crossover drug-drug interaction study: steady-state plasma pharmacokinetics of atorvastatin and its two active metabolites with or without ethyl eicosapentaenoate
Conditions: for Effect of co-administration of ethyl eicosapentaenoate on Tmax: atorvastatin 80 mg alone versus with 4 g ethyl eicosapentaenoate; for Change of mean plasma concentrations over time: subjects concomitantly administered 4 g of ethyl eicosapentaenoate, FIG. 1B, 1C
Text: Data for Cmax and AUC0-24 are reported as means (SD); data for Tmax are reported as median values.

[1] = 80 mg atorvastatin co-administered with 4 g ethyl eicosapentaenoate
[2] = atorvastatin + ethyl eicosapentaenoate group divided by atorvastatin only group
[3] = atorvastatin + ethyl eicosapentaenoate versus atorvastatin only

Row | AUC0-24, mean (80 mg atorvastatin alone) [ng·h/mL] | Cmax, mean (80 mg atorvastatin alone) [ng/mL] | Tmax, median (80 mg atorvastatin alone) [h] | AUC0-24, mean [1] [ng·h/mL] | Cmax, mean [1] [ng/mL] | Tmax, median [1] [h] | Effect of co-administration of ethyl eicosapentaenoate on Tmax | Change of mean plasma concentrations over time | AUC0-24, LSGM (least squares geometric mean) (A + EPA = atorvastatin (80 mg) co-administered with ethyl eicosapentaenoate (4 g)) [ng·h/mL] | AUC0-24, Ratio of LSGM [2] | Cmax, Ratio of LSGM [2] | AUC0-24, 90% CI of the ratio [3] | Cmax, 90% CI of the ratio [3] | Structure (SMILES)
1 | 36.7 | 4.1 | 1.50 | 34.3 | 4.2 | 1.50 | did not significantly affect | did not significantly change |  |  |  |  |  | CC(C)c1c(C(=O)Nc2ccc(O)cc2)c(-c2ccccc2)c(-c2ccc(F)cc2)n1CC[C@@H](O)C[C@@H](O)CC(=O)O [4-Hydroxyatorvastatin, 4-hydroxyatorvastatin]
2 | 213.1 | 43.2 | 1.25 | 196.7 | 44.5 | 1.25 | did not significantly affect | did not significantly change | 30.9 | 0.91 and 0.92 | 1.04 and 0.97 | 82.8-99.7 and 82.3-103 | 89.1-121 and 80.0-117 | CC(C)c1c(C(=O)Nc2ccccc2O)c(-c2ccccc2)c(-c2ccc(F)cc2)n1CCC(O)CC(O)CC(=O)O (stereo not drawn) [2-Hydroxyatorvastatin, 2-hydroxyatorvastatin]
